For 14 compounds, EC50 and Emax results are on record in patent publication US20240208992A1, “MACROCYCLES AS CFTR MODULATORS” (Idorsia Pharmaceuticals Ltd, priority 2021, published 2024).

This assay concerns the target human F508del-CFTR (Homo sapiens, UniProt P13569, DEL508-508). Nature of the assay: F508del-CFTR cell surface expression (corrector activity), DiscoveRx ß-galactosidase complementation chemiluminescence assay in recombinant U2OS cell line.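 On all read-outs here: U2OS cells co-expressing ProLink-tagged F508del-CFTR and a membrane-anchored enzyme acceptor, where more surface CFTR restores β-galactosidase activity measured by chemiluminescence.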 To be noted: for EC50: EC50, F508del-CFTR cell surface expression, U2OS cells, 16h compound incubation, geomean values; for Emax: in relation to Emax of corrector lumacaftor (=100%), arithmetic mean values.

Chain of human F508del-CFTR (P13569 with tags, fused parts or gaps DEL508-508): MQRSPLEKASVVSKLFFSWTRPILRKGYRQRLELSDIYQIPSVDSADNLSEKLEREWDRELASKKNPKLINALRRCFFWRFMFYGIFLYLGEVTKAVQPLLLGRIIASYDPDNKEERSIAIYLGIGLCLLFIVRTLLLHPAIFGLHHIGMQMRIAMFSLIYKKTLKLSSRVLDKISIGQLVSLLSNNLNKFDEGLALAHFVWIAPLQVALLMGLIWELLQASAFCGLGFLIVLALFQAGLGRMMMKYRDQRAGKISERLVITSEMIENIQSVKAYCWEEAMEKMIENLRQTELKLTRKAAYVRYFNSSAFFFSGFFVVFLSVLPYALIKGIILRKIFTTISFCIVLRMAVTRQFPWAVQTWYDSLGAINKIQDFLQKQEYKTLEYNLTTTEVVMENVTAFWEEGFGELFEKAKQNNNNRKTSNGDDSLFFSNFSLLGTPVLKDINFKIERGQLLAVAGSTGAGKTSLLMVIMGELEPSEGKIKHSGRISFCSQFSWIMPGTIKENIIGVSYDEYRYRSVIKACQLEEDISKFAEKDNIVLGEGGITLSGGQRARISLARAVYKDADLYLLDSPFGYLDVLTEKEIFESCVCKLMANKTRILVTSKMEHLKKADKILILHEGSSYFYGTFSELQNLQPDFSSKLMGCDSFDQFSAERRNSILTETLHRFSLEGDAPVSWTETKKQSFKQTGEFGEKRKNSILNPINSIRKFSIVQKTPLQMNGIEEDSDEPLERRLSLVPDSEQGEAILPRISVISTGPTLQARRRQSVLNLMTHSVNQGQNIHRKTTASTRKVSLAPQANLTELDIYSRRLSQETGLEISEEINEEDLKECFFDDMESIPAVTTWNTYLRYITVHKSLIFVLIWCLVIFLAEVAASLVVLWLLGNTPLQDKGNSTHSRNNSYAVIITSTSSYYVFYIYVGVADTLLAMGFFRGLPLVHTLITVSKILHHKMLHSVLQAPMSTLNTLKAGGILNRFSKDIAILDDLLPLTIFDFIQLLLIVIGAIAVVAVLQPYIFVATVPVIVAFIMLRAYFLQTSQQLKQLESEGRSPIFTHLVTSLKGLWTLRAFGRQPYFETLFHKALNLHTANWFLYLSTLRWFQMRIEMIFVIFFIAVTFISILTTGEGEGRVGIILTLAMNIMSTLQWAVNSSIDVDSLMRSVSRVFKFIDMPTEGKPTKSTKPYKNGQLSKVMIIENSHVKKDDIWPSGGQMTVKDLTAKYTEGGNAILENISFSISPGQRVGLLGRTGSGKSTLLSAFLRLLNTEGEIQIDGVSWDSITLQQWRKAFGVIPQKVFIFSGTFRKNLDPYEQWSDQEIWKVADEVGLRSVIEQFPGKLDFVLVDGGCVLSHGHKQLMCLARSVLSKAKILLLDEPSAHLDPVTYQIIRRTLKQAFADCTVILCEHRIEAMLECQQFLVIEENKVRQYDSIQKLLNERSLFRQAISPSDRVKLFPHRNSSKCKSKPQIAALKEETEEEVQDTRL

On to `CC(C)C[C@H]1C(=O)N(C)[C@@H](CC2CCC(F)(F)CC2)C(=O)N[C@H](Cc2ccccc2)COc2cnc3ccc(F)cc3c2C(=O)N[C@H](C(=O)NCCc2noc(C3CC3)n2)CC(=O)N1C` [Example 539, (3S,7S,10R,13R)-13-benzyl-N-(2-(5-cyclopropyl-1,2,4-oxadiazol-3-yl)ethyl)-10-((4,4-difluorocyclohexyl)methyl)-20-fluoro-7-isobutyl-6,9-dimethyl-1,5,8,11-tetraoxo-1,2,3,4,5,6,7,8,9,10,11,12,13,14-tetradecahydro-[1]oxa[4,7,10,14]tetraazacycloheptadecino[17,16-c]quinoline-3-carboxamide], for which the EC50 stood at 95 nM and the maximal effect (Emax) was found to be 391%.

Regarding `CC(C)C[C@H]1C(=O)N(C)[C@@H](CC2CCC(F)(F)CC2)C(=O)N[C@H](Cc2ccccc2)COc2cnc3ccc(F)cc3c2C(=O)N[C@H](C(=O)NCCc2noc(C3CC3)n2)CC(=O)N1C` [Example 540, (3S,7S,10S,13R)-13-benzyl-N-(2-(5-cyclopropyl-1,2,4-oxadiazol-3-yl)ethyl)-10-((4,4-difluorocyclohexyl)methyl)-20-fluoro-7-isobutyl-6,9-dimethyl-1,5,8,11-tetraoxo-1,2,3,4,5,6,7,8,9,10,11,12,13,14-tetradecahydro-[1]oxa[4,7,10,14]tetraazacycloheptadecino[17,16-c]quinoline-3-carboxamide], the EC50 worked out at 269 nM and the Emax was 256%.

`CC(C)C[C@H]1C(=O)N2CCCC[C@@H]2C(=O)N[C@H](Cc2ccccc2)COc2ccc3ncc(F)cc3c2C(=O)N[C@H](C(=O)NCCc2noc(C3CC3)n2)CC(=O)N1C` [Example 541, (9S,13S,19aR,22R)-22-benzyl-N-(2-(5-cyclopropyl-1,2,4-oxadiazol-3-yl)ethyl)-5-fluoro-13-isobutyl-12-methyl-7,11,14,20-tetraoxo-7,8,9,10,11,12,13,14,17,18,19,19a,20,21,22,23-hexadecahydro-16H-pyrido[2′,1′:6,7][1]oxa[4,7,10,14]tetraazacycloheptadecino[16,17-f]quinoline-9-carboxamide]: the EC50 is 185 nM. Also, where the note is “U2OS”, the maximal response (Emax) stood at 357%.

As to `COc1nccc2c1C(=O)N[C@H](C(=O)NCCc1cc(C)no1)CC(=O)N(C)[C@@H](CC(C)C)C(=O)N1CCN(c3ccccc3)C[C@@H]1C(=O)N[C@H](Cc1ccccc1)CO2` [Example 542, (7S,11S,20R,22aR)-20-benzyl-7-isobutyl-14-methoxy-8-methyl-N-(2-(3-methylisoxazol-5-yl)ethyl)-6,9,13,22-tetraoxo-2-phenyl-1,3,4,6,7,8,9,10,11,12,13,19,20,21,22,22a-hexadecahydro-2H-pyrazino[2,1-f]pyrido[3,4-p][1]oxa[4,7,10,14]tetraazacycloheptadecine-11-carboxamide], the concentration giving a half-maximal response (EC50) is 368 nM. The Emax (U2OS) was 334%.

For the compound `CC(C)C[C@H]1C(=O)N(C)C2(CC2)C(=O)N[C@H](Cc2ccccc2)COc2ccc3ncccc3c2C(=O)N[C@H](C(=O)NCCc2cc(C3CC3)no2)CC(=O)N1C` [Example 543, (3′S,7′S,13′R)-13′-benzyl-N-(2-(3-cyclopropylisoxazol-5-yl)ethyl)-7′-isobutyl-6′,9′-dimethyl-1′,5′,8′,11′-tetraoxo-2′,3′,4′,5′,6′,7′,8′,9′,11′,12′,13′,14′-dodecahydro-1′H-spiro[cyclopropane-1,10′-[1]oxa[4,7,10,14]tetraazacycloheptadecino[16,17-f]quinoline]-3′-carboxamide], the concentration for a half-maximal effect (EC50) turned out to be 785 nM. For the same compound, under “U2OS”, the maximal response (Emax) came to 399%.

For the compound `CC(C)C[C@H]1C(=O)N(C)C2(CC2)C(=O)N[C@H](Cc2ccccc2)COc2ccc3ncccc3c2C(=O)N[C@H](C(=O)NCCc2noc(C3CC3)n2)CC(=O)N1C` [Example 544, (3′S,7′S,13′R)-13′-benzyl-N-(2-(5-cyclopropyl-1,2,4-oxadiazol-3-yl)ethyl)-7′-isobutyl-6′,9′-dimethyl-1′,5′,8′,11′-tetraoxo-2′,3′,4′,5′,6′,7′,8′,9′,11′,12′,13′,14′-dodecahydro-1′H-spiro[cyclopropane-1,10′-[1]oxa[4,7,10,14]tetraazacycloheptadecino[16,17-f]quinoline]-3′-carboxamide], the EC50 is 774 nM. Further, the Emax (U2OS) amounted to 398%.

Consider `CC(C)C[C@H]1C(=O)N(C)C2(CC2)C(=O)N[C@H](Cc2ccccc2)COc2ccc3ncc(F)cc3c2C(=O)N[C@H](C(=O)NCCc2cc(C3CC3)no2)CC(=O)N1C` [Example 545, (3′S,7′S,13′R)-13′-benzyl-N-(2-(3-cyclopropylisoxazol-5-yl)ethyl)-20′-fluoro-7′-isobutyl-6′,9′-dimethyl-1′,5′,8′,11′-tetraoxo-2′,3′,4′,5′,6′,7′,8′,9′,11′,12′,13′,14′-dodecahydro-1′H-spiro[cyclopropane-1,10′-[1]oxa[4,7,10,14]tetraazacycloheptadecino[16,17-f]quinoline]-3′-carboxamide], for which the half-maximal effective concentration (EC50) was 349 nM. Besides, the maximal response (Emax) (U2OS) amounted to 385%.

Consider `CC(C)C[C@H]1C(=O)N(C)C2(CC2)C(=O)N[C@H](Cc2ccccc2)COc2ccc3ncc(F)cc3c2C(=O)N[C@H](C(=O)NCCc2noc(C3CC3)n2)CC(=O)N1C` [Example 546, (3′S,7′S,13′R)-13′-benzyl-N-(2-(5-cyclopropyl-1,2,4-oxadiazol-3-yl)ethyl)-20′-fluoro-7′-isobutyl-6′,9′-dimethyl-1′,5′,8′,11′-tetraoxo-2′,3′,4′,5′,6′,7′,8′,9′,11′,12′,13′,14′-dodecahydro-1′H-spiro[cyclopropane-1,10′-[1]oxa[4,7,10,14]tetraazacycloheptadecino[16,17-f]quinoline]-3′-carboxamide], for which the EC50 was 350 nM. Also, the Emax (U2OS) worked out at 411%.

On to `Cc1cc(CCNC(=O)[C@@H]2CC(=O)N(C)[C@@H](CC(C)C)C(=O)N(C)[C@H](C(C)C)C(=O)N[C@H](Cc3ccccc3)COc3cnc4ccccc4c3C(=O)N2)on1` [Example 547, (3S,7S,10R,13R)-13-benzyl-7-isobutyl-10-isopropyl-6,9-dimethyl-N-(2-(3-methylisoxazol-5-yl)ethyl)-1,5,8,11-tetraoxo-1,2,3,4,5,6,7,8,9,10,11,12,13,14-tetradecahydro-[1]oxa[4,7,10,14]tetraazacycloheptadecino[17,16-c]quinoline-3-carboxamide], for which the 50% effective concentration (EC50) came out at 281 nM. For the same compound, under “U2OS”, the maximum response (Emax) is 330%.

`Cc1cc(CCNC(=O)[C@@H]2CC(=O)N(C)[C@@H](CC(C)C)C(=O)N(C)[C@H](CC(C)C)C(=O)N[C@H](Cc3ccccc3)COc3cnc4ccccc4c3C(=O)N2)on1` [Example 548, (3S,7S,10R,13R)-13-benzyl-7,10-diisobutyl-6,9-dimethyl-N-(2-(3-methylisoxazol-5-yl)ethyl)-1,5,8,11-tetraoxo-1,2,3,4,5,6,7,8,9,10,11,12,13,14-tetradecahydro-[1]oxa[4,7,10,14]tetraazacycloheptadecino[17,16-c]quinoline-3-carboxamide]: the half-maximal effective concentration (EC50) is 106 nM. Also, the maximal response (Emax) (U2OS) was determined as 326%.

Take `COc1cccc(CCNC(=O)[C@@H]2CC(=O)N(C)[C@@H](CC(C)C)C(=O)N3CCN(c4ccccc4)C[C@H]3C(=O)N[C@H](Cc3ccccc3)COc3ccnc(OC)c3C(=O)N2)c1` [Example 549, (7S,11S,20R,22aS)-20-benzyl-7-isobutyl-14-methoxy-N-(3-methoxyphenethyl)-8-methyl-6,9,13,22-tetraoxo-2-phenyl-1,3,4,6,7,8,9,10,11,12,13,19,20,21,22,22a-hexadecahydro-2H-pyrazino[2,1-f]pyrido[3,4-p][1]oxa[4,7,10,14]tetraazacycloheptadecine-11-carboxamide]: the concentration giving a half-maximal response (EC50) was determined as 166 nM. For the setting “U2OS”, the Emax worked out at 167%.

As for `COc1nccc2c1C(=O)N[C@H](C(=O)NCCc1cc(C)no1)CC(=O)N(C)[C@@H](CC(C)C)C(=O)N1CCN(c3ccccc3)C[C@H]1C(=O)N[C@H](Cc1ccccc1)CO2` [Example 550, (7S,11S,20R,22aS)-20-benzyl-7-isobutyl-14-methoxy-8-methyl-N-(2-(3-methylisoxazol-5-yl)ethyl)-6,9,13,22-tetraoxo-2-phenyl-1,3,4,6,7,8,9,10,11,12,13,19,20,21,22,22a-hexadecahydro-2H-pyrazino[2,1-f]pyrido[3,4-p][1]oxa[4,7,10,14]tetraazacycloheptadecine-11-carboxamide], the concentration giving a half-maximal response (EC50) came to 687 nM. Further, the maximal response (Emax) (U2OS) amounted to 129%.

In the case of `COc1cccc(CCNC(=O)[C@@H]2CC(=O)N(C)[C@@H](CC(C)C)C(=O)N(C)C3(CC3)C(=O)N[C@H](Cc3ccccc3)COc3ccc4cc(C)oc4c3C(=O)N2)c1` [Example 551, (8R,14S,18S)-8-benzyl-14-isobutyl-N-(3-methoxyphenethyl)-2,12,15-trimethyl-10,13,16,20-tetraoxo-7,8,9,10,13,14,15,16,17,18,19,20-dodecahydro-12H-spiro[benzofuro[7,6-p][1]oxa[4,7,10,14]tetraazacycloheptadecine-11,1′-cyclopropane]-18-carboxamide], the EC50 was found to be 222 nM. Further, for the setting “U2OS”, the Emax amounted to 317%.

Turning to `Cc1cc2ccc3c(c2o1)C(=O)N[C@H](C(=O)NCCc1cc(C2CC2)no1)CC(=O)N(C)[C@@H](CC(C)C)C(=O)N(C)C1(CC1)C(=O)N[C@H](Cc1ccccc1)CO3` [Example 552, (8R,14S,18S)-8-benzyl-N-(2-(3-cyclopropylisoxazol-5-yl)ethyl)-14-isobutyl-2,12,15-trimethyl-10,13,16,20-tetraoxo-7,8,9,10,13,14,15,16,17,18,19,20-dodecahydro-12H-spiro[benzofuro[7,6-p][1]oxa[4,7,10,14]tetraazacycloheptadecine-11,1′-cyclopropane]-18-carboxamide], the EC50 turned out to be 413 nM. Moreover, under “U2OS”, the Emax stood at 358%.

The term EC50 denotes the concentration at which the effect is half-maximal. A word on the Emax: it is the size of the effect at its maximum, as opposed to the concentration needed.
